Measurements as given in patent publication US20070155687A1, “Methods and compositions for altering cell function” (Alltech, Inc., priority 2005, published 2007).

What was measured:
Type in all cases: in vivo
[1] = tested on: Thioredoxin Reductase 1 (Trx-1); experiment: Intestinal gene expression: Thioredoxin Reductase 1; settings: mouse intestine; diet 1 ppm Se, 100 days; vs selenium deficient; all p < 0.01
Text: (§1) Animal Care. Male C57BL/6J mice were housed singly and started on the experimental diets described below immediately after weaning (21 days of age). The mice were maintained in the Shared Aging Rodent Facility at the William S. Middleton Memorial Veterans Administration Medical Center (Madison, Wis.). Temperature and humidity were maintained at constant levels. Room light was controlled to provide 12-hr cycles of light and dark.
(§2) Experimental diets were created by Harlan Teklad (Madison, Wis.). Selenium content of the diets was determined by Covance Inc. (Madison, Wis.). Five (5) animals were included in each of the following treatment groups: a diet deficient in selenium (SD); a diet supplemented with selenomethionine (SM, obtained from Sigma, St. Louis, Mo.) such that the final selenium content of the diet was one (1) part per million; a diet supplemented with sodium selenite (SS, Sigma) such that the final concentration of selenium in this diet was one (1) part per million; or a diet supplemented with the yeast selenium SEL-PLEX (SP, Alltech, Lexington, Ky), such that the final concentration of selenium in this diet was one (1) part per million. SEL-PLEX. […]
(§3) Tissue sample preparation and microarray analysis. […] For intestinal expression studies, the intestine was flushed twice with saline solution and small intestine was measured and divided in three equal segments. […]

Selenoprotein W (SelW) = experiment: Intestinal gene expression: Selenoprotein W; settings: mouse intestine; diet 1 ppm Se, 100 days; vs selenium deficient
Text: as §1, §2, §3

selenoprotein N1 (Sepn1) = experiment: Intestinal gene expression: selenoprotein N1; settings: mouse intestine; diet 1 ppm Se, 100 days; vs selenium deficient
Text: as §1, §2, §3

[2] = tested on: SelR (also known as Selenoprotein X1); experiment: Intestinal gene expression: SelR; settings: mouse intestine; diet 1 ppm Se, 100 days; vs selenium deficient
Text: as §1, §2, §3

[3] = tested on: type II iodothyronine deiodinase, (Dio2); experiment: Intestinal gene expression: Dio2; settings: mouse intestine; diet 1 ppm Se, 100 days; vs selenium deficient
Text: as §1, §2, §3

Glyoxalase 1 (Glo 1) = experiment: Intestinal gene expression: Glo1; settings: mouse intestine; diet 1 ppm Se, 100 days; vs selenium deficient
Text: as §1, §2, §3

Prohibitin (Phb) = experiment: Intestinal gene expression: Prohibitin; settings: mouse intestine; diet 1 ppm Se, 100 days; vs selenium deficient; p<0.05
Text: as §1, §2, §3

[4] = tested on: LIM homeobox protein 8 gene (Lhx8); experiment: Intestinal gene expression: Lhx8; settings: mouse intestine; diet 1 ppm Se, 100 days; vs Se-deficient subjects
Text: as §1, §2, §3

[5] = tested on: transforming growth factor beta 2 (TGF-β2); experiment: Intestinal gene expression: TGF-β2; settings: mouse intestine; diet 1 ppm Se, 100 days; compared to controls
Text: as §1, §2, §3

Neurogenin 3 (Neurog3) = experiment: Intestinal gene expression: Neurog3; settings: mouse intestine; diet 1 ppm Se, 100 days; vs selenium deficient
Text: as §1, §2, §3

[6] = tested on: sprouty homolog 2 gene (Spry2); experiment: Intestinal gene expression: Spry2; settings: mouse intestine; diet 1 ppm Se, 100 days; relative to Se-deficient controls
Text: as §1, §2, §3

Cathepsin B = experiment: Cerebral cortex gene expression: Cathepsin B; settings: mouse cerebral cortex; diet 1 ppm Se, 100 days; * downregulation significant relative to Se-deficient mice
Text: as §1, §2, §3

Cathepsin D = experiment: Cerebral cortex gene expression: Cathepsin D; settings: mouse cerebral cortex; diet 1 ppm Se, 100 days; * downregulation significant relative to Se-deficient mice
Text: as §1, §2, §3

[7] = tested on: Amyloid beta (A4) precursor protein-binding, family B, member 1 (Apbb1 or Fe65); experiment: Cerebral cortex gene expression: Apbb1/Fe65; settings: mouse cerebral cortex; diet 1 ppm Se, 100 days; * significant relative to Se-deficient animals, P < 0.01
Text: as §1, §2, §3

[8] = tested on: Amyloid beta (A4) precursor-like protein (Aplp 1); experiment: Cerebral cortex gene expression: Aplp 1; settings: mouse cerebral cortex; diet 1 ppm Se, 100 days; * significant relative to Se-deficient animals, P < 0.01
Text: as §1, §2, §3

SOD1 = experiment: Intestinal gene expression: SOD1; settings: mouse intestine; diet 1 ppm Se, 100 days; vs selenium deficient
Text: as §1, §2, §3

[9] = tested on: Cu chaperone for SOD, (CCS); experiment: Intestinal gene expression: Cu chaperone for SOD; settings: mouse intestine; diet 1 ppm Se, 100 days; vs selenium deficient
Text: as §1, §2, §3

[10] = tested on: Glutathione S-transferase, alpha 3 (Gsta3); experiment: Intestinal gene expression: Gsta3; settings: mouse intestine; diet 1 ppm Se, 100 days; vs Se-deficient diets; negative = down; NS = not significant
Text: as §1, §2, §3

[11] = tested on: Glutathione S-transferase, mu1 (Gstm1); experiment: Intestinal gene expression: Gstm1; settings: mouse intestine; diet 1 ppm Se, 100 days; vs Se-deficient diets; negative = down; NS = not significant
Text: as §1, §2, §3

[12] = tested on: Glutathione S-transferase, theta 2 (Gstt2); experiment: Intestinal gene expression: Gstt2; settings: mouse intestine; diet 1 ppm Se, 100 days; vs Se-deficient diets; negative = down; NS = not significant
Text: as §1, §2, §3

| Structure (SMILES) | fold increase in expression of the Thioredoxin Reductase 1 gene [1] | Selenoprotein W (SelW) expression, upregulated (Selenoprotein W (SelW)) | selenoprotein N1 (Sepn1) expression level, increased (selenoprotein N1 (Sepn1)) | SelR gene expression, upregulated [2] | Dio2 expression, down-regulation [3] | Glo1 expression, reduction of expression (Glyoxalase 1 (Glo 1)) | Prohibitin (Phb) expression, upregulated (Prohibitin (Phb)) | Lhx8 expression, upregulated [4] | TGF-β2 expression, upregulated [5] | Neurog3 expression, upregulated (Neurogenin 3 (Neurog3)) | Spry2 gene expression, reduction [6] | FC Cathepsin B expression (Cathepsin B) | FC Cathepsin D expression (Cathepsin D) | FC Apbb1 (Fe65) expression [7] | FC Aplp 1 expression [8] | enhanced expression of SOD1 (SOD1) | enhancement in the expression of the Cu chaperone for SOD (CCS) [9] | FC Gsta3 expression [10] | FC Gstm1 expression [11] | FC Gstt2 expression [12] |
| --- | --- | --- | --- | --- | --- | --- | --- | --- | --- | --- | --- | --- | --- | --- | --- | --- | --- | --- | --- | --- |
| C[Se]CC[C@H](N)C(=O)O [SeM, selenomethionine] | 1.8 fold | not significantly altered | not significantly affected | not significantly affected | no ability to alter the expression levels | not significantly affected | 1.6 fold | not significantly different | not altered | no significant alteration | no alteration | −1.03 fold | 1.02 fold | 1.02 fold | 1.02 fold | – | – | – | – | – |
| O=[Se](O)O [Sod-sel, sodium selenite] | – | 5.1 fold | – | 1.3 fold | – | – | – | – | – | – | – | −1.13* fold | −1.24* fold | −1.32* fold | −1.55* fold | 1.92 fold | 1.28 fold | −2.3 fold | −2.4 fold | −1.3 fold |
